Molecular target: T1, human glucocorticoid receptor (GR) complex (Homo sapiens, UniProt P04150)
T1 construct: made in house; host or cells: insect expression system (baculovirus lysate)
T1 sequence (P04150 1-777): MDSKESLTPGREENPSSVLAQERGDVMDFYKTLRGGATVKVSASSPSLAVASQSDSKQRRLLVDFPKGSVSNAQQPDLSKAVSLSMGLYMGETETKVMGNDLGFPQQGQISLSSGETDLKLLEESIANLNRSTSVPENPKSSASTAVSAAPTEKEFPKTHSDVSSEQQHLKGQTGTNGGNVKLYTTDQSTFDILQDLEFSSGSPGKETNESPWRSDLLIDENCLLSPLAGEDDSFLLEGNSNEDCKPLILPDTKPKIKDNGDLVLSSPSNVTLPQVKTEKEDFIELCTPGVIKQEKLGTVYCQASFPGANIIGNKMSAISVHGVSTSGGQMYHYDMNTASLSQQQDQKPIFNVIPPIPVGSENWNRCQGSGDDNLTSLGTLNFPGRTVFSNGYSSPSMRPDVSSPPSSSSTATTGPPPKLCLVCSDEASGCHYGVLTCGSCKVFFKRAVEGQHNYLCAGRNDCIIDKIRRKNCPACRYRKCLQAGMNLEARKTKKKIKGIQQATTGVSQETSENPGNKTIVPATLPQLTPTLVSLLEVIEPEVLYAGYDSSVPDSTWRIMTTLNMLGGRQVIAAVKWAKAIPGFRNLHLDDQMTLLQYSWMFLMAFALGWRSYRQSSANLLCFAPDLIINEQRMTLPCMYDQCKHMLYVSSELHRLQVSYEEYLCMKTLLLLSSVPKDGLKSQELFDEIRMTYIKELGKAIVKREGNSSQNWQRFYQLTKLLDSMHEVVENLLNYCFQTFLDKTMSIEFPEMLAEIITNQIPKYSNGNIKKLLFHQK
Test: Glucocorticoid receptor competitive binding assay (fluorescence polarization)
Conditions: competition with TAMRA-labeled dexamethasone, read-out: potent activity (IC50) in the GR binding assay
Protocol: Compounds of the invention were evaluated for binding to the steroid receptor by a fluorescence polarization competitive binding assay. Detailed descriptions for preparation of recombinant glucocorticoid receptor (GR) complex used in the assay is described in U.S. Patent Application Publication No. US 2003/0017503, filed May 20, 2002, and incorporated herein by reference in its entirety. Preparation of the tetramethylrhodamine (TAMRA)-labeled dexamethasone probe was accomplished using a standard literature procedure (M. Pons et al., J. Steroid Biochem., 1985, 22, pp. 267-273).
The affinity of the probe for the steroid receptor was then determined in a titration experiment. The fluorescence polarization value of the probe in assay buffer was measured on an SLM-8100 fluorometer using the excitation and emission maximum values described above. Aliquots of expression vector lysate were added and fluorescence polarization was measured after each addition until no further change in polarization value was observed. Non-linear least squares regression analysis was used to calculate the dissociation constant of the probe from the polarization values obtained for lysate binding to the probe.
This assay uses fluorescence polarization (FP) to quantitate the ability of test compounds to compete with tetramethylrhodamine (TAMRA)-labeled dexamethasone for binding to a human glucocorticoid receptor (GR) complex prepared from an insect expression system. The assay buffer was: 10 mM TES, 50 mM KCl, 20 mM Na2MoO4.2H2O, 1.5 mM EDTA, 0.04% w/v CHAPS, 10% v/v glycerol, 1 mM dithiothreitol, pH 7.4. Test compounds were dissolved to 1 mM in neat DMSO and then further diluted to 10× assay concentration in assay buffer supplemented with 10% v/v DMSO. Test compounds were serially diluted at 10× assay concentrations in 10% DMSO-containing buffer in 96-well polypropylene plates. Binding reaction mixtures were prepared in 96-well black Dynex microtiter plates by sequential addition of the following assay components to each well: 15 μL of 10× test compound solution, 85 μL of GR-containing baculovirus lysate diluted 1:170 in assay buffer, and 50 μL of 15 nM TAMRA-labeled dexamethasone. Positive controls were reaction mixtures containing no test compound; negative controls (blanks) were reaction mixtures containing 0.7 μM to 2 μM dexamethasone. The binding reactions were incubated for 1 hour at room temperature and then read for fluorescence polarization in the LJL Analyst set to 550 nm excitation and 580 nm emission, with the Rhodamine 561 dichroic mirror installed. IC50 values were determined by iterative non-linear curve fitting of the FP signal data to a 4-parameter logistic equation.

SMILES	IC50 [nM]
Cc1cc(C)c(S(=O)(=O)NC(COc2ccc(Br)cc2C)C(F)(F)F)c(C)c1 (stereo not drawn) [N-[1-(4-Bromo-2-methylphenoxymethyl)-2,2,2-trifluoroethyl]-2,4,6-trimethylbenzenesulfonamide]	≤ 100
Cc1cc(C)c(S(=O)(=O)NC(COc2ccccc2C)C(F)(F)F)c(C)c1 (stereo not drawn) [2,4,6-Trimethyl-N-(2,2,2-trifluoro-1-o-tolyloxymethylethyl)benzenesulfonamide]	≤ 100
Cc1cc(C)c(S(=O)(=O)NC(CSc2ccc(Cl)c(Cl)c2)C(F)(F)F)c(C)c1 (stereo not drawn) [N-[1-(3,4-Dichlorophenylsulfanylmethyl)-2,2,2-trifluoroethyl]-2,4,6-trimethylbenzenesulfonamide]	≤ 100
COc1cccc(SCC(NS(=O)(=O)c2c(C)cc(C)cc2C)C(F)(F)F)c1 (stereo not drawn) [2,4,6-Trimethyl-N-[2,2,2-trifluoro-1-(3-methoxyphenylsulfanylmethyl)ethyl]benzenesulfonamide]	≤ 100
Cc1cc(C)c(S(=O)(=O)NC(CNc2c(Cl)cc(Cl)cc2Cl)C(F)(F)F)c(C)c1 (stereo not drawn) [2,4,6-Trimethyl-N-{2,2,2-trifluoro-1-[(2,4,6-trichlorophenylamino)methyl]ethyl}benzenesulfonamide]	≤ 100
CCOc1cccc(SCC(NS(=O)(=O)c2c(C)cc(C)cc2C)C(F)(F)F)c1 (stereo not drawn) [N-[1-(3-Ethoxyphenylsulfanylmethyl)-2,2,2-trifluoroethyl]-2,4,6-trimethylbenzenesulfonamide]	≤ 100
Cc1cc(C)c(S(=O)(=O)NC(CSc2ccc(Br)cc2)C(F)(F)F)c(C)c1 (stereo not drawn) [N-[1-(4-Bromophenylsulfanylmethyl)-2,2,2-trifluoroethyl]-2,4,6-trimethylbenzenesulfonamide]	≤ 100
CSc1cccc(NCC(NS(=O)(=O)c2c(C)cc(C)cc2C)C(F)(F)F)c1 (stereo not drawn) [2,4,6-Trimethyl-N-{2,2,2-trifluoro-1-[(3-methylsulfanylphenylamino)methyl]ethyl}benzenesulfonamide]	≤ 100
Cc1cc(C)c(S(=O)(=O)NC(CSc2ccc(Cl)cc2Cl)C(F)(F)F)c(C)c1 (stereo not drawn) [N-[1-(2,4-Dichlorophenylsulfanylmethyl)-2,2,2-trifluoroethyl]-2,4,6-trimethylbenzenesulfonamide]	≤ 100
Cc1cc(C)c(S(=O)(=O)NC(COc2ccccc2C(F)(F)F)C(F)(F)F)c(C)c1 (stereo not drawn) [2,4,6-Trimethyl-N-[2,2,2-trifluoro-1-(2-trifluoromethylphenoxymethyl)ethyl]benzenesulfonamide]	≤ 100
Cc1cc(C)c(S(=O)(=O)NC(CNc2cccc(Cl)c2)C(F)(F)F)c(C)c1 (stereo not drawn) [N-{1-[(3-Chlorophenylamino)methyl]-2,2,2-trifluoroethyl}-2,4,6-trimethylbenzenesulfonamide]	≤ 100
Cc1cc(C)c(S(=O)(=O)NC(CNc2ccc(F)cc2F)C(F)(F)F)c(C)c1 (stereo not drawn) [N-{1-[(2,4-Difluorophenylamino)methyl]-2,2,2-trifluoroethyl}-2,4,6-trimethylbenzenesulfonamide]	≤ 100
Cc1cc(C)c(S(=O)(=O)NC(CSc2ccccc2OC(F)(F)F)C(F)(F)F)c(C)c1 (stereo not drawn)	≤ 100
COc1ccc(NCC(NS(=O)(=O)c2c(C)cc(C)cc2C)C(F)(F)F)c(C)c1 (stereo not drawn) [2,4,6-Trimethyl-N-{2,2,2-trifluoro-1-[(4-methoxy-2-methylphenylamino)methyl]ethyl}benzenesulfonamide]	≤ 100
Cc1cc(C)c(S(=O)(=O)NC(COc2ccc(C#N)c(Cl)c2)C(F)(F)F)c(C)c1 (stereo not drawn) [N-[1-(3-Chloro-4-cyanophenoxymethyl)-2,2,2-trifluoroethyl]-2,4,6-trimethylbenzenesulfonamide]	≤ 100
Cc1cc(C)c(S(=O)(=O)NC(CNc2ccc(C#N)cc2Cl)C(F)(F)F)c(C)c1 (stereo not drawn) [N-{1-[(2-Chloro-4-cyanophenylamino)methyl]-2,2,2-trifluoroethyl}-2,4,6-trimethylbenzenesulfonamide]	≤ 100
COc1cc(NCC(NS(=O)(=O)c2c(C)cc(C)cc2C)C(F)(F)F)cc(C(F)(F)F)c1 (stereo not drawn) [2,4,6-Trimethyl-N-{2,2,2-trifluoro-1-[(3-methoxy-5-trifluoromethylphenylamino)methyl]ethyl}benzenesulfonamide]	≤ 100
COc1ccc(N(Cc2ccccc2)CC(NS(=O)(=O)c2c(C)cc(C)cc2C)C(F)(F)F)cc1 (stereo not drawn) [N-(1-{[Benzyl-(4-methoxyphenyl)amino]methyl}-2,2,2-trifluoroethyl)-2,4,6-trimethylbenzenesulfonamide]	≤ 100

Results, then the molecule that gave them:

IC50 [nM]	SMILES
≤ 100	Cc1cc(C)c(S(=O)(=O)NC(COc2cccc(C(F)(F)F)c2)C(F)(F)F)c(C)c1 (stereo not drawn) [2,4,6-Trimethyl-N-[2,2,2-trifluoro-1-(3-trifluoromethylphenoxymethyl)ethyl]benzenesulfonamide]
≤ 100	Cc1cc(C)c(S(=O)(=O)NC(CNc2cc(Cl)ccc2C)C(F)(F)F)c(C)c1 (stereo not drawn) [N-{1-[(5-Chloro-2-methylphenylamino)methyl]-2,2,2-trifluoroethyl}-2,4,6-trimethylbenzenesulfonamide]
≤ 100	Cc1cc(C)c(S(=O)(=O)NC(CNc2ccc(C)cc2F)C(F)(F)F)c(C)c1 (stereo not drawn) [2,4,6-Trimethyl-N-{2,2,2-trifluoro-1-[(2-fluoro-4-methylphenylamino)methyl]ethyl}benzenesulfonamide]
≤ 100	Cc1cc(C)c(S(=O)(=O)NC(CSc2ccccc2Cl)C(F)(F)F)c(C)c1 (stereo not drawn) [N-[1-(2-Chlorophenylsulfanylmethyl)-2,2,2-trifluoroethyl]-2,4,6-trimethylbenzenesulfonamide]
≤ 100	Cc1cc(C)c(S(=O)(=O)NC(CSc2cccc(C(F)(F)F)c2)C(F)(F)F)c(C)c1 (stereo not drawn) [2,4,6-Trimethyl-N-[2,2,2-trifluoro-1-(3-trifluoromethylphenylsulfanylmethyl)ethyl]benzenesulfonamide]
≤ 100	Cc1cc(C)c(S(=O)(=O)NC(CNc2ccccc2)C(F)(F)F)c(C)c1 (stereo not drawn) [2,4,6-Trimethyl-N-(2,2,2-trifluoro-1-phenylaminomethylethyl)benzenesulfonamide]
≤ 100	Cc1cc(C)c(S(=O)(=O)NC(COc2cccc3ccccc23)C(F)(F)F)c(C)c1 (stereo not drawn) [2,4,6-Trimethyl-N-[2,2,2-trifluoro-1-(naphthalen-1-yloxymethyl)ethyl]benzenesulfonamide]
≤ 100	Cc1cc(C)c(S(=O)(=O)NC(CN(CCC#N)c2ccccc2)C(F)(F)F)c(C)c1 (stereo not drawn) [N-(1-{[(2-Cyanoethyl)phenylamino]methyl}-2,2,2-trifluoroethyl)-2,4,6-trimethylbenzenesulfonamide]
≤ 100	Cc1cc(C)c(S(=O)(=O)NC(CNc2cccc(C)c2C#N)C(F)(F)F)c(C)c1 (stereo not drawn) [N-{1-[(2-Cyano-3-methylphenylamino)methyl]-2,2,2-trifluoroethyl}-2,4,6-trimethylbenzenesulfonamide]
≤ 100	CCC(CSc1ccccc1)NS(=O)(=O)c1c(C)cc(C)cc1C (stereo not drawn) [2,4,6-Trimethyl-N-(1-phenylsulfanylmethylpropyl)benzenesulfonamide]
≤ 100	Cc1cc(C)c(S(=O)(=O)NC(COc2ccc(F)c(F)c2F)C(F)(F)F)c(C)c1 (stereo not drawn) [2,4,6-Trimethyl-N-[2,2,2-trifluoro-1-(2,3,4-trifluorophenoxymethyl)ethyl]benzenesulfonamide]
≤ 100	CC[C@@H](CNc1ccc(C)cc1C)NS(=O)(=O)c1c(C)cc(C)cc1C [N-{(S)-1-[(2,4-Dimethylphenylamino)methyl]propyl}-2,4,6-trimethylbenzenesulfonamide]

Source: patent US20100048950A1 (BOEHRINGER INGELHEIM INTERNATIONAL GMBH, priority 2007, published 2010)
